Holding throughout (assay): NCI tumour cell line growth inhibition, 48 h
Experiment [1] concerns NCI-H226 lung.
The subject of experiment [2] is OVCAR-8 ovarian.
Experiment [3] has as its system KM12 colon.
Experiment [4] relates to SR leukemia.
The test system of experiment [5] is NCI-H23 lung.
Experiment [6] has as its system UACC-257 melanoma.
Experiment [7] concerns A549 NSCLC.
Experiment [8] deals with HS 578T breast.
Experiment [9] has as its system HT29 colon.
For experiment [10], the system named is SNB-19 CNS.

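Grown in 96-well plates, cells were treated for 48 hours with each compound at five concentrations. Insufficient inhibition: endpoint recorded as highest concentration tested. GI50: concentration for 50% inhibition of growth. TGI: concentration producing complete growth inhibition.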

Turning to `O=C(Oc1ccc(Cl)cc1)c1ccccc1Nc1ccnc(C(F)(F)F)c1`, the GI50 in experiment [1] is 2.94 µM; in [2] it was 4.04 µM; in experiment [3], 8.94 µM; in [4], 3.79 µM; in experiment [5], 2.82 µM; in [6] it was 4.51 µM. The GI50 in [7] is 15.3 µM; in experiment [8], 30.3 µM. In addition, the TGI in experiment [1] is 16.8 µM; in experiment [2], 35.5 µM; in experiment [3] it was 23.1 µM; in experiment [4], greater than 100 µM; in experiment [5], 8.55 µM; in experiment [6], 24.4 µM. In addition, the figures for the TGI in experiment [7] and in [8] were 52.3 µM and 93.9 µM, respectively.

Turning to `O=C(Nc1ccc(Oc2ccc(Nc3nc4ccccc4s3)cc2)cc1)Nc1ccc(Cl)c(C(F)(F)F)c1`, the GI50 in [1] was 1.39 µM; in experiment [2], 2.22 µM; in [9], 1.72 µM; in [3], 1.51 µM; in [10], 1.71 µM; in experiment [4] it was 1.32 µM. Further, the GI50 in [5] was 1.06 µM; in experiment [6], 1.83 µM; in experiment [7], 1.97 µM; in experiment [8] it was 2.07 µM. The TGI worked out at 3.33 µM in experiment [1]; 7.29 µM in experiment [2]; 3.23 µM in experiment [9]; 3.34 µM in experiment [3]; 3.62 µM in [10]; 5.81 µM in [4]. The TGI was found to be 2.77 µM in [5], 6.09 µM in [6], 6.26 µM in [7] and 7.55 µM in experiment [8].

As to `CC(=O)OCCOCNC(=S)N/N=C(\C)c1cnccn1`, the TGI is 79.7 µM in experiment [1]; greater than 100 µM in experiment [2]; greater than 100 µM in experiment [9]; greater than 100 µM in experiment [3]; greater than 100 µM in [10]; greater than 100 µM in [4]. For the same molecule, the TGI in [5], in experiment [6] and in experiment [7] was greater than 100 µM each time.

Turning to `CC(C)(C)c1cc2ccc(C(N)=O)cc2c(=O)[nH]1`, the TGI in experiment [1], in experiment [2], in experiment [9], in experiment [3], in experiment [10] and in experiment [4] was greater than 100 µM each time. Also, the TGI in [5], in experiment [6] and in experiment [7] was greater than 100 µM each time.

Turning to `C=CC[C@H](C[C@H](C[C@H](C[C@H](C[C@H](C[C@H](C[C@H](C[C@H](C[C@H](C[C@H](CCCCC)OC)OC)OC)OC)OC)OC)OC)OC)OC)OC`, the TGI in [1], in experiment [2], in experiment [9], in experiment [3], in experiment [10] and in experiment [4] was greater than 100 µM throughout. For the same molecule, the TGI in experiment [5], in experiment [6] and in [7] was greater than 100 µM each time.

Regarding `Cc1ccc(/C=C/C(=O)CCN(C)C)cc1`, the TGI was 49.4 µM in [1]; 62.2 µM in experiment [2]; 33.4 µM in experiment [9]; 14 µM in experiment [3]; greater than 100 µM in [10]; 62.7 µM in experiment [4]. Moreover, the TGI stood at 79 µM in [5], 31 µM in [6] and 38.4 µM in experiment [7].

For the molecule `COc1cccc(C(=O)NC(c2ccc(C)cc2)c2cc(Cl)c3cccnc3c2O)c1` (configuration not stated), the GI50 in experiment [1] was 0.568 µM; in [2] it was 0.476 µM; in experiment [9], 0.623 µM; in [3] it was 0.545 µM; in experiment [10], 0.371 µM; in [4] it was 0.538 µM. Moreover, the GI50 was 0.552 µM in experiment [5], 0.653 µM in experiment [6], 0.473 µM in experiment [7] and 0.362 µM in [8]. In addition, the TGI in [1] is 2.57 µM; in experiment [2], 26.7 µM; in experiment [9], 19.8 µM; in experiment [3] it was 16.8 µM; in experiment [10], 29 µM; in experiment [4], 5.66 µM. For the same molecule, the TGI in experiment [5] is 22.2 µM; in [6], 12.7 µM; in experiment [7], 11.2 µM; in [8] it was 30.5 µM.

On to `S=c1sc2c(n1-c1ccccc1)NC=NC2S` (configuration not stated), for which the TGI in experiment [1], in [2], in [9], in experiment [3], in [10] and in [4] was greater than 100 µM each time. Besides, the TGI in experiment [5], in [6] and in experiment [7] was greater than 100 µM in each case.

In the case of `O=C1CN(c2cccc(Cl)c2)C(=O)CN1CCN1CC(=O)N(c2cccc(Cl)c2)CC1=O`, the TGI was greater than 100 µM in experiment [2]; greater than 100 µM in [9]; greater than 100 µM in experiment [3]; greater than 100 µM in experiment [10]; greater than 100 µM in [4]; 71.1 µM in [5]. The TGI in experiment [6], in [7] and in [8] was greater than 100 µM throughout.

Take `CN(C)c1cc(NN=C(c2ccc(O)cc2)c2ccc(O)cc2)c([N+](=O)[O-])cc1[N+](=O)[O-]`: the GI50 in experiment [1] is 13.1 µM; in experiment [2], 7.73 µM; in experiment [9], 10 µM; in experiment [3], 3.73 µM; in experiment [10], 9.4 µM; in experiment [4] it was 3.15 µM. The GI50 in experiment [5] is 6.46 µM; in experiment [6] it was 13.4 µM; in experiment [7] it was 4.45 µM. Besides, the TGI came to 32.3 µM in experiment [1]; 46.5 µM in [2]; 23.7 µM in experiment [9]; 13.8 µM in experiment [3]; 22.2 µM in [10]; 22.8 µM in experiment [4]. In addition, the TGI stood at 23.1 µM in experiment [5], 27.3 µM in experiment [6] and 18.5 µM in [7].

With `COc1cc(C2CC(C)(O)Oc3cc4c(cc32)OCO4)cc(OC)c1OC` (configuration not stated), the TGI in experiment [2] is 6.01 µM; in experiment [9], greater than 100 µM; in experiment [3] it was 0.595 µM; in experiment [10] it was greater than 100 µM; in experiment [4], greater than 100 µM; in experiment [5], greater than 100 µM. The TGI in experiment [6] was greater than 100 µM; in [7], greater than 100 µM; in [8], 0.696 µM.
